From US10925283B2, “Microbiocidal phenylamidine derivatives” (SYNGENTA PARTICIPATIONS AG, priority 2016, dated 2021)

Legend:
Type in all cases: in vivo
[1] = tested on: Puccinia recondita f. sp. tritici; experiment: Puccinia recondita f. sp. tritici / wheat / leaf disc curative (brown rust); details: foliar, wheat leaf segments cv. Kanzler, compound applied 1 day after inoculation, assessed 6-8 days after application, read-out: control of Puccinia recondita f. sp. tritici (percent disease control compared to untreated)
Protocol: Puccinia recondita f. Sp. Tritici/Wheat/Leaf Disc Curative (Brown Rust) Wheat leaf segments cv. Kanzler are placed on agar in multiwell plates (24-well format). The leaf segments are inoculated with a spore suspension of the fungus. Plates are stored in darkness at 19° C. and 75% rh. The formulated test compound diluted in water is applied 1 day after inoculation. The leaf segments are incubated at 19° C. and 75% rh under a light regime of 12 h light/12 h darkness in a climate cabinet and the activity of a compound is assessed as percent disease control compared to untreated when an appropriate level of disease damage appears in untreated check leaf segments (6-8 days after application).

Phakopsora pachyrhizi = Phakopsora pachyrhizi / soybean / preventative (soybean rust); details: foliar, soybean leaf disks, inoculated one day after application, assessed 12-14 days after application, read-out: control of Phakopsora pachyrhizi (percent disease control compared to untreated)
Protocol: Phakopsora pachyrhizi/Soybean/Preventative (Soybean Rust) Soybean leaf disks are placed on water agar in multiwell plates (24-well format) and sprayed with the formulated test compound diluted in water. One day after application leaf discs are inoculated by spraying a spore suspension on the lower leaf surface. After an incubation period in a climate cabinet of 24-36 hours in darkness at 20° C. and 75% rh leaf disc are kept at 20° C. with 12 h light/day and 75% rh. The activity of a compound is assessed as percent disease control compared to untreated when an appropriate level of disease damage appears in untreated check leaf disks (12-14 days after application).

[2] = tested on: Blumeria graminis f. sp. tritici (Erysiphe graminis f. sp. tritici); experiment: Blumeria graminis f. sp. tritici / wheat / leaf disc preventative (powdery mildew on wheat); details: foliar, wheat leaf segments cv. Kanzler, inoculated 1 day after application, assessed 6-8 days after application, read-out: control of Blumeria graminis f. sp. tritici (percent disease control compared to untreated)
Protocol: Blumeria graminis f. sp. tritici (Erysiphe graminis f. sp. tritici)/Wheat/Leaf Disc Preventative (Powdery Mildew on Wheat) Wheat leaf segments cv. Kanzler are placed on agar in a multiwell plate (24-well format) and sprayed with the formulated test compound diluted in water. The leaf disks are inoculated by shaking powdery mildew infected plants above the test plates 1 day after application. The inoculated leaf disks are incubated at 20° C. and 60% rh under a light regime of 24 h darkness followed by 12 h light/12 h darkness in a climate chamber and the activity of a compound is assessed as percent disease control compared to untreated when an appropriate level of disease damage appears on untreated check leaf segments (6-8 days after application).

[3] = tested on: Puccinia recondita f. sp. tritici; experiment: Puccinia recondita f. sp. tritici / wheat / leaf disc preventative (brown rust); details: foliar, wheat leaf segments cv. Kanzler, inoculated 1 day after application, assessed 7-9 days after application, read-out: control of Puccinia recondita f. sp. tritici (percent disease control compared to untreated)
Protocol: Puccinia recondita f. Sp. Tritici/Wheat/Leaf Disc Preventative (Brown Rust) Wheat leaf segments cv. Kanzler are placed on agar in multiwell plates (24-well format) and sprayed with the formulated test compound diluted in water. The leaf disks are inoculated with a spore suspension of the fungus 1 day after application. The inoculated leaf segments are incubated at 19° C. and 75% rh under a light regime of 12 h light/12 h darkness in a climate cabinet and the activity of a compound is assessed as percent disease control compared to untreated when an appropriate level of disease damage appears in untreated check leaf segments (7-9 days after application).

Measured: pest or weed control at 200 ppm

CCN(C)/C=N/c1cc(OC)c(C(O)(COC2CC(C)CC(C)C2)C(F)(F)F)cc1C (stereo not drawn) [E.006, N′-[4-[1-[(3,5-dimethylcyclohexoxy)methyl]-2,2,2-trifluoro-1-hydroxy-ethyl]-5-methoxy-2-methyl-phenyl]-N-ethyl-N-methyl-formamidine]
≥ 80%: all assays above

CCOC1CCC(C(O)(c2cc(C)c(/N=C/N(C)CC)cc2OC)C(F)(F)F)CC1 (stereo not drawn) [E.080, N′-[4-[1-(4-ethoxycyclohexyl)-2,2,2-trifluoro-1-hydroxy-ethyl]-5-methoxy-2-methyl-phenyl]-N-ethyl-N-methyl-formamidine]
≥ 80%: all assays above

CC#CCOCCC(O)(c1cc(C)c(/N=C/N(C)CC)cc1OC)C(F)(F)F (stereo not drawn) [E.049, N′-[4-[3-but-2-ynoxy-1-hydroxy-1-(trifluoromethyl)propyl]-5-methoxy-2-methyl-phenyl]-N-ethyl-N-methyl-formamidine]
≥ 80%: all assays above

CCN(C)/C=N/c1cc(OC)c(C(O)(COCC(C)C)C(F)(F)F)cc1C (stereo not drawn) [E.046, N-ethyl-N′-[5-methoxy-2-methyl-4-[2,2,2-trifluoro-1-hydroxy-1-(isobutoxymethyl)ethyl]phenyl]-N-methyl-formamidine]
≥ 80%: all assays above

CCCOCC(O)(c1cc(C)c(/N=C/N(C)CC)cc1OC)C(F)(F)F (stereo not drawn) [E.014, N-ethyl-N′-[5-methoxy-2-methyl-4-[2,2,2-trifluoro-1-hydroxy-1-(propoxymethyl)ethyl]phenyl]-N-methyl-formamidine]
≥ 80%: all assays above

CCN(C)/C=N/c1cc(OC)c(C(O)(COCCc2ccccc2)C(F)(F)F)cc1C (stereo not drawn) [E.021, N-ethyl-N′-[5-methoxy-2-methyl-4-[2,2,2-trifluoro-1-hydroxy-1-(2-phenylethoxymethyl)ethyl]phenyl]-N-methyl-formamidine]
≥ 80%: all assays above

CCN(C)/C=N/c1cc(OC)c(C(O)(COCc2ccc(F)cc2)C(F)(F)F)cc1C (stereo not drawn) [E.044, N-ethyl-N′-[5-methoxy-2-methyl-4-[2,2,2-trifluoro-1-[(4-fluorophenyl)methoxymethyl]-1-hydroxy-ethyl]phenyl]-N-methyl-formamidine]
≥ 80%: Phakopsora pachyrhizi | [2] | [3]

CCN(C)/C=N/c1cc(OC)c(C(O)(COC2CCCC2)C(F)(F)F)cc1C (stereo not drawn) [E.032, N′-[4-[1-(cyclopentoxymethyl)-2,2,2-trifluoro-1-hydroxy-ethyl]-5-methoxy-2-methyl-phenyl]-N-ethyl-N-methyl-formamidine]
≥ 80%: Phakopsora pachyrhizi

C=CCOCCOCC(O)(c1cc(C)c(/N=C/N(C)CC)cc1OC)C(F)(F)F (stereo not drawn) [E.030, N′-[4-[1-(2-allyloxyethoxymethyl)-2,2,2-trifluoro-1-hydroxy-ethyl]-5-methoxy-2-methyl-phenyl]-N-ethyl-N-methyl-formamidine]
≥ 80%: [1] | [2] | [3]

CCN(C)/C=N/c1cc(OC)c(C(O)(COCC(C)(C)COC(C)(C)C)C(F)(F)F)cc1C (stereo not drawn) [E.015, N′-[4-[1-[(3-tert-butoxy-2,2-dimethyl-propoxy)methyl]-2,2,2-trifluoro-1-hydroxy-ethyl]-5-methoxy-2-methyl-phenyl]-N-ethyl-N-methyl-formamidine]
≥ 80%: [1] | [2] | [3]

CCN(C)/C=N/c1cc(OC)c(C(O)(CO[C@H]2CC[C@H](C)CC2)C(F)(F)F)cc1C (stereo partly drawn) [E.004, N-ethyl-N′-[5-methoxy-2-methyl-4-[2,2,2-trifluoro-1-hydroxy-1-[(4-methylcyclohexoxy)methyl]ethyl]phenyl]-N-methyl-formamidine]
≥ 80%: Phakopsora pachyrhizi

CCN(C)/C=N/c1cc(OC)c(C(O)(COCC(C)(C)C)C(F)(F)F)cc1C (stereo not drawn) [E.008, N′-[4-[1-(2,2-dimethylpropoxymethyl)-2,2,2-trifluoro-1-hydroxy-ethyl]-5-methoxy-2-methyl-phenyl]-N-ethyl-N-methyl-formamidine]
≥ 80%: [1] | [2] | [3]

CCN(C)/C=N/c1cc(OC)c(C(O)(CSc2ccccc2)C(F)(F)F)cc1C (stereo not drawn) [E.072, N-ethyl-N′-[5-methoxy-2-methyl-4-[2,2,2-trifluoro-1-hydroxy-1-(phenylsulfanylmethyl)ethyl]phenyl]-N-methyl-formamidine]
≥ 80%: Phakopsora pachyrhizi | [2] | [3]

CCC(CC)OCC(O)(c1cc(C)c(/N=C/N(C)CC)cc1OC)C(F)(F)F (stereo not drawn) [E.024, N-ethyl-N′-[4-[1-(1-ethylpropoxymethyl)-2,2,2-trifluoro-1-hydroxy-ethyl]-5-methoxy-2-methyl-phenyl]-N-methyl-formamidine]
≥ 80%: Phakopsora pachyrhizi

CCN(C)/C=N/c1cc(OC)c(C(O)(COCc2ccco2)C(F)(F)F)cc1C (stereo not drawn) [E.023, N-ethyl-N′-[5-methoxy-2-methyl-4-[2,2,2-trifluoro-1-(2-furylmethoxymethyl)-1-hydroxy-ethyl]phenyl]-N-methyl-formamidine]
≥ 80%: [1] | [2] | [3]

CCN(C)/C=N/c1cc(OC)c(C(O)(COCc2ccccc2)C(F)(F)F)cc1C (stereo not drawn) [E.043, N′-[4-[1-(benzyloxymethyl)-2,2,2-trifluoro-1-hydroxy-ethyl]-5-methoxy-2-methyl-phenyl]-N-ethyl-N-methyl-formamidine]
≥ 80%: Phakopsora pachyrhizi | [2] | [3]

CCN(C)/C=N/c1cc(OC)c(C(O)(COCC2(C)COC2)C(F)(F)F)cc1C (stereo not drawn) [E.018, N-ethyl-N′-[5-methoxy-2-methyl-4-[2,2,2-trifluoro-1-hydroxy-1-[(3-methyloxetan-3-yl)methoxymethyl]ethyl]phenyl]-N-methyl-formamidine]
≥ 80%: [1] | [2] | [3]

CCO/N=C(/CC(O)(c1cc(C)c(/N=C/N(C)CC)cc1OC)C(F)(F)F)c1ccccc1 (stereo not drawn) [E.058, N′-[4-[(3Z)-3-ethoxyimino-1-hydroxy-3-phenyl-1-(trifluoromethyl)propyl]-5-methoxy-2-methyl-phenyl]-N-ethyl-N-methyl-formamidine]
≥ 80%: [1] | [2] | [3]

CCN(C)/C=N/c1cc(OC)c(C(O)(COCCC(C)(C)OC)C(F)(F)F)cc1C (stereo not drawn) [E.019, N-ethyl-N′-[5-methoxy-2-methyl-4-[2,2,2-trifluoro-1-hydroxy-1-[(3-methoxy-3-methyl-butoxy)methyl]ethyl]phenyl]-N-methyl-formamidine]
≥ 80%: [1] | [2] | [3]

CCN(C)/C=N/c1cc(OC)c(C(O)(COCC2CC2(F)F)C(F)(F)F)cc1C (stereo not drawn) [E.031, N′-[4-[1-[(2,2-difluorocyclopropyl)methoxymethyl]-2,2,2-trifluoro-1-hydroxy-ethyl]-5-methoxy-2-methyl-phenyl]-N-ethyl-N-methyl-formamidine]
≥ 80%: [1] | [2] | [3]
